The values that follow come from patent US20240361338A1, “DIAGNOSIS AND TREATMENT OF ECTOPIC ENDOMETRIOSIS” (FERRING B.V., priority 2021, published 2024).

In test [1] the test system is ectopic E-MSCs. The test can be described thus: Endothelial differentiation (CD31) of ectopic E-MSCs in co-culture with HUVECs. It is filed as cell-based, human. The note with it: for endothelial differentiation (CD31 expression) of E-MSCs: 1 μM, 24 h treatment, 48 h co-culture with HUVECs. As for the experimental part: FIG. 5: Quinagolide effect on EMSCs endothelial differentiation. A. FACS gating-strategy for the analysis of CD31^+ EMSCs after direct 48 h co-culture with HUVECs. EMSCs are gated as GFP negative population, and CD31 expression is evaluated on the described gated EMSCs after 48 h co-culture with HUVECs as percentage of CD31 APC positive events. B, C and D: Representative flow cytometry micrographs and quantification, expressed as percentage of variation respect to control co-culture, of the effect of 24 h treatment of EMSCs with 25 μM cabergoline, 1 μM sorafenib, 1 μM cabozantinib (B), 100 nM quinagolide (C) and the combination of 5 μM spiperone and 100 nM quinagolide (D) on EMSCs CD31 expression after 48 h of co-culture with HUVECs. Data are represented as mean±SD of at least three independent experiments, performed on different ectopic EMSC lines, and normalized to untreated co-culture. One-way ANova was performed: *=p<0.05 and ***=p<0.001 vs control.
(BSA)-Phosphate Buffered Saline (PBS) (Sigma). For each staining, 100,000 cells were incubated for 20 minutes at 4° C. with FITC, APC or PE-conjugated antibodies against: CD29, CD44, CD73, CD90 (BD Bioscences, Franklin Lakes, NJ, USA); CD31, CD34, CD105, CD140b, CD146, TEK receptor tyrosine kinase (Tie2), Sushi domain-containing protein 2 (SUSD2) (Miltenyi Biotech, Bergisch Gladbach, Germany); CD45 (AbD Serotec, Raleigh, NC, USA), or epithelial cell adhesion molecule (EPCAM) (BioLegend, San Diego, CA, USA). Labelled cells were washed by centrifugation and final pellet was resuspended in 200 μl of 0.1% BSA-PBS before cytofluorimetric analysis. Isotype (Miltenyi Biotec) was used as negative control.
Quinagolide powder (provided by Ferring Pharmaceuticals) was stored at 4° C. and resuspended in dimethylsulphoxide (DMSO) to a stock solution of 1 mM immediately before use. Spiperone powder (Sigma-Aldrich) was resuspended in water to a stock concentration of 1 mM and stored at −20° C. Cabergoline powder (Sigma-Aldrich) was dissolved in DMSO to a stock concentration of 25 mM and stored at −20° C. Sorafenib and cabozantinib (Sigma-Aldrich) were resuspended in DMSO to a final concentration of 10 mM and according to the manufacturer's instructions, and stored at −20° C. and −80° C., respectively. Quinagolide, spiperone and cabergoline were diluted 1:100 (final concentration 100 nM), 1:1000 (final concentration 5 μM) and 1:1000 (final concentration 25 μM) respectively. Quinagolide, cabergoline, sorafenib and cabozantinib and were administered for 24 hours during co-culture experiments, while spiperone was added to culture medium 1 h before quinagolide treatment. For invasion assays, E-MSCs were treated with spiperone 1 h before the cell detachment and quinagolide was added only when cells were plated on Matrigel. […]

The test system of test [2] is ectopic E-MSCs. The note with it: 25 μM, previously described (Canosa et al., 2017), positive control; cited from earlier work.
The subject of test [3] is ectopic E-MSCs. Kind of test: Matrigel transwell invasion assay, ectopic E-MSCs. It is filed as cell-based, human. The note with it: 5 μM spiperone pre-treatment 1 h, then 100 nM quinagolide, ectopic EMSCs. As for the experimental part:
FIG. 4: Quinagolide effect on EMSCs invasion. A and B: Representative micrographs (A) and quantification (B) of quinagolide effect (100 nM) on eutopic and ectopic (both ovarian and peritoneal) EMSCs invasion (original magnification: ×100). C: Concentration response effect of quinagolide treated ectopic EMSCs invasion. D and E: Quantification (D) and representative micrographs (E) (original magnification: ×100) of invasion assays performed on ectopic EMSCs (both ovarian and peritoneal), treated with 100 nM quinagolide (Q100 nM), 5 μM spiperone(S) or a combination of quinagolide and spiperone (S+Q100 nM). All invasion data are represented as mean±SD of at least three independent experiments, performed on different EMSC lines, and normalized to untreated cells (CTL). One-way ANova was performed: *=p<0.05 and **=p<0.001 vs CTL. Quinagolide powder (provided by Ferring Pharmaceuticals) was stored at 4° C. and resuspended in dimethylsulphoxide (DMSO) to a stock solution of 1 mM immediately before use. Spiperone powder (Sigma-Aldrich) was resuspended in water to a stock concentration of 1 mM and stored at −20° C. Cabergoline powder (Sigma-Aldrich) was dissolved in DMSO to a stock concentration of 25 mM and stored at −20° C. […] Quinagolide, cabergoline, sorafenib and cabozantinib and were administered for 24 hours during co-culture experiments, while spiperone was added to culture medium 1 h before quinagolide treatment. […] E-MSCs were seeded in triplicate in Matrigel-precoated (100 μg Matrigel/transwell) 8-um pore transwells at a concentration of 50,000 cells per well in 200 μl of RPMI 2% FCS with/without quinagolide at the indicated concentration. To test the D2 antagonist effect, E-MSCs were pre-treated with spiperone (5 μM) for 1 h at 37° C. before cell detachment. After 48 hours, invaded E-MSCs on the bottom side of the transwell were fixed with methanol and stained with crystal violet. At least five pictures per transwell were acquired (original magnification: 100×), and the percentage of transwell area covered by invaded EMSCs was quantitatively measured by ImageJ software.

Regarding `CNC(=O)c1cc(Oc2ccc(NC(=O)Nc3ccc(Cl)c(C(F)(F)F)c3)cc2)ccn1` [Sorafenib], the “endothelial differentiation (CD31 expression) of E-MSCs” value in test [1] is recorded as “no effect”. As to `C=CCN1C[C@H](C(=O)N(CCCN(C)C)C(=O)NCC)C[C@@H]2c3cccc4[nH]cc(c34)C[C@H]21` [cabergoline], in test [2], the “E-MSC's angiogenic potential” value was “decrease”.

As for `COc1cc2nccc(Oc3ccc(NC(=O)C4(C(=O)Nc5ccc(F)cc5)CC4)cc3)c2cc1OC` [cabozantinib], the “endothelial differentiation (CD31 expression) of E-MSCs” value in test [1] was “no effect”. For `O=C(CCCN1CCC2(CC1)C(=O)NCN2c1ccccc1)c1ccc(F)cc1` [spiperone], the “block of quinagolide effect on CD31 expressing E-MSCs” value in test [1] (5 μM spiperone one hour before 100 nM quinagolide, co-culture) was “blocked”. Also, in test [3], the “reversal of quinagolide anti-invasive effect” value was “completely reverted”.
